Patent US10052320B2, “Substituted quinoxalines as FGFR kinase inhibitors” (ASTEX THERAPEUTICS LIMITED, priority 2011, dated 2018)

What was measured:
[1] = biological target: Ba/F3-KDR-transfected cells (Homo sapiens, UniProt P35968); assay: Ba/F3-KDR (minus IL3) cellular proliferation assay, Alamar Blue; format: cell-based
Procedure, shortened: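 Ba/F3-KDR cells in phenol red free RPMI-1640 with 10% FBS were exposed to compound for 24 h at 37 °C, 5% CO2. Alamar Blue (resazurin) was then added for 4 h and fluorescence read at ex 540/em 590 nm. The counterscreen ran identically with 10 ng/ml murine IL3.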

[2] = biological target: T1, Ba/F3-Flt3-transfected cells (Homo sapiens, UniProt P36888, cells depend on it, form not given); assay: Ba/F3-Flt3 (minus IL3) cellular proliferation assay, Alamar Blue; format: cell-based
T1 sequence (P36888 1-993): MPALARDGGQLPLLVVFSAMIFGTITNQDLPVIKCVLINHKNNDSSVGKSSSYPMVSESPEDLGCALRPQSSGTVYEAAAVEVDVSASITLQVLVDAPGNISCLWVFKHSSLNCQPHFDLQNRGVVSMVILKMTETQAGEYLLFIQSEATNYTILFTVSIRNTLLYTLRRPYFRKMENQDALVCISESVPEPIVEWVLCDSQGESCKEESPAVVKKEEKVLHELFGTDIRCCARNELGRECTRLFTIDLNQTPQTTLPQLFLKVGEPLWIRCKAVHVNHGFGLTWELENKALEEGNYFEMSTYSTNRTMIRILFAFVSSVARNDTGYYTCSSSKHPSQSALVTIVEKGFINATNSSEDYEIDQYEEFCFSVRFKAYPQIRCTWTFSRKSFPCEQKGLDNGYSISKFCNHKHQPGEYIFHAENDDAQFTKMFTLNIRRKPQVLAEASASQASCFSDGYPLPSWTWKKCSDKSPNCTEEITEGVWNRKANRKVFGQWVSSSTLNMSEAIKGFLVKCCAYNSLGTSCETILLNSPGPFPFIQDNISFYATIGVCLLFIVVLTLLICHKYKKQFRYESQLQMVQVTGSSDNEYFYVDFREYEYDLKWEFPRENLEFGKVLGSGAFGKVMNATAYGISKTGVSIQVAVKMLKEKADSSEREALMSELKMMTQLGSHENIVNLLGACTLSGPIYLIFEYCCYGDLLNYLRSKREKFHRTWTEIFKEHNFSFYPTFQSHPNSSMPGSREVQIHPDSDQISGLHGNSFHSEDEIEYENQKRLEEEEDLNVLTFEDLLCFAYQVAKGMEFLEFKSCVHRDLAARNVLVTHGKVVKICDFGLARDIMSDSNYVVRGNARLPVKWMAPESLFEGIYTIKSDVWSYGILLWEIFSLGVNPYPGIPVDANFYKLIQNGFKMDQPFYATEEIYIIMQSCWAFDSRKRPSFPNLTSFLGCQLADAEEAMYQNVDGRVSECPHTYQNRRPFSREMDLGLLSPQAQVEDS

[3] = biological target: FGFR3 (h) (Homo sapiens, UniProt P22607); assay: FGFR3 (enzymatic assay), TR-FRET; format: biochemical; conditions: read-out: FGFR 3 pIC50 (converted)
Sequence of FGFR3 (h) (P22607 23-806): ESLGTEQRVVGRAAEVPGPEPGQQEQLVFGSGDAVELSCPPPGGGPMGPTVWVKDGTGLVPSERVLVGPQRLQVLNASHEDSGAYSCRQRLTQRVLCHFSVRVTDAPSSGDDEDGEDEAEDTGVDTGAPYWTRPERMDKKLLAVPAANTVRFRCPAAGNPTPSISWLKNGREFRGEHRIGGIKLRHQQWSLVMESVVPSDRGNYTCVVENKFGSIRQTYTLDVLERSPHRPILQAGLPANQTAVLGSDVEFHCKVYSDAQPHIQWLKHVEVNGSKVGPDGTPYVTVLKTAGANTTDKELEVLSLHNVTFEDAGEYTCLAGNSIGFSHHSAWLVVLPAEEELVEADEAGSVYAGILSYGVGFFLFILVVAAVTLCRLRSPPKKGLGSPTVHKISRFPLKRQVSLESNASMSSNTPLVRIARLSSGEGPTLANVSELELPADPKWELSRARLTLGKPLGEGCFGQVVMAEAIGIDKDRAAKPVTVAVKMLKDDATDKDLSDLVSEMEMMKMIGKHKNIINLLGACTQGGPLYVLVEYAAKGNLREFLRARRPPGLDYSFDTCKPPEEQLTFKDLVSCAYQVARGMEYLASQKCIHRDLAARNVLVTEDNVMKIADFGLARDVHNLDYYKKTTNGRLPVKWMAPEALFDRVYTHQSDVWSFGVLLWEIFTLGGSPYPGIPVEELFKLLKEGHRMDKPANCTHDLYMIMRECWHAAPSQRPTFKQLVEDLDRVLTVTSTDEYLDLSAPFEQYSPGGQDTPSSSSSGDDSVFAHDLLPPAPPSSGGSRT
Method: In a final reaction volume of 30 μL, FGFR3 (h) (40 ng/ml) was incubated with 50 mM HEPES pH 7.5, 6 mM MnCl2, 1 mM DTT, 0.1 mM Na3VO4, 0.01% Triton-X-100, 500 nM Btn-Flt3 and 25 μM ATP in the presence of compound (1% DMSO final). […] Time-Resolved Fluorescence Resonance Energy Transfer (TR-FRET) signal (ex340 nm. Em 620 nm, em 655 nm) was measured afterwards and results are expressed in RFU (Relative Fluorescence Units).

Sequence of Ba/F3-KDR-transfected cells (P35968 whole entry, change not shown): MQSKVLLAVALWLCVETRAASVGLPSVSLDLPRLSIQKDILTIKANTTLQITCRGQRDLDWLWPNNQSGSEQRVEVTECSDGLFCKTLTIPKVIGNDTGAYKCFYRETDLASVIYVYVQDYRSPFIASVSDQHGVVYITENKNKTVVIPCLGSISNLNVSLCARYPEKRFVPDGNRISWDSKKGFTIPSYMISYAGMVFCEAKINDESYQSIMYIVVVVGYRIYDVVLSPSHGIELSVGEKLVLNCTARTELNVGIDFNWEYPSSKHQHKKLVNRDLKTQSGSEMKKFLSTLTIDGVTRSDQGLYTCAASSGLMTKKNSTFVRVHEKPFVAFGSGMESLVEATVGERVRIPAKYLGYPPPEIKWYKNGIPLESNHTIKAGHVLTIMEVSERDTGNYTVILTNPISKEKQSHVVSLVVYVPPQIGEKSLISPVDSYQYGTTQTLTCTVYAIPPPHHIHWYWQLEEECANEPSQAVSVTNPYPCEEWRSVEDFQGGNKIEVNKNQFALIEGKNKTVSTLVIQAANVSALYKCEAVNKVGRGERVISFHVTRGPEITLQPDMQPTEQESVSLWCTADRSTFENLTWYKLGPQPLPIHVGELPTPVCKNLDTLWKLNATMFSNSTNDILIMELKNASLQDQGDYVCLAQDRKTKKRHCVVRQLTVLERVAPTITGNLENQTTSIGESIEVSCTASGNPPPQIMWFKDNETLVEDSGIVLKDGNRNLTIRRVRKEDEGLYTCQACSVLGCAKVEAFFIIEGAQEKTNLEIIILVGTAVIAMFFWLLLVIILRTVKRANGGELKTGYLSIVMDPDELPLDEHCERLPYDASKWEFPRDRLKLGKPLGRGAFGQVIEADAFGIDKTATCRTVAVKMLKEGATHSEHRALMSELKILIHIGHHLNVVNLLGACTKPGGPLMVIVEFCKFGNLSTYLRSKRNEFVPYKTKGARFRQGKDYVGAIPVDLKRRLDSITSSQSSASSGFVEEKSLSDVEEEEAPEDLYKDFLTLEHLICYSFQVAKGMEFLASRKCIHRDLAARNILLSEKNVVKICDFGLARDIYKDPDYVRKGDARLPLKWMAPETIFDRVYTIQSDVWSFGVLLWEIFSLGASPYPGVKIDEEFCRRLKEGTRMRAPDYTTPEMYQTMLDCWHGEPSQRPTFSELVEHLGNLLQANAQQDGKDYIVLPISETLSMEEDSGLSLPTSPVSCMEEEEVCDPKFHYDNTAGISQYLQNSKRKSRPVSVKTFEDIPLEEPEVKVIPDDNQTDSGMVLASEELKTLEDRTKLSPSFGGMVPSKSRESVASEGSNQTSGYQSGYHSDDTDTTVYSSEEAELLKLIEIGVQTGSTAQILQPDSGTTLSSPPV

BAF3-KDR (MIN IL3) 384 well pIC50 ([1]; minus IL3)	BAF3-FLT3 (MIN IL3) 384 well pIC50 ([2]; minus IL3)	melting point [°C]	IC50 [3] [µM]	BAF3-FLT3 (MIN IL3) 96 well pIC50 ([2]; minus IL3)	BAF3-KDR (MIN IL3) 384 well pIC50 ([1]; minus IL3, 384 well)	BAF3-FLT3 (MIN IL3) 96 well pIC50 ([2]; minus IL3, 96 well)	BAF3-FLT3 (MIN IL3) 384 well pIC50 ([2]; minus IL3, 384 well)	BAF3-KDR (MIN IL3) 96 well pIC50 ([1]; minus IL3)	SMILES
<5	<5	–	–	–	–	–	–	–	COc1cc(OC)cc(N(CC(OC(C)=O)C(F)(F)F)c2ccc3ncc(-c4cccnc4)nc3c2)c1 (single isomer, unassigned) [Compound 45]
<5	<5	211	–	–	–	–	–	–	COc1cc(OC)cc(N(CC(O)C(F)(F)F)c2ccc3ncc(-c4cccnc4)nc3c2)c1 (single isomer, unassigned) [Compound 53]
<5	<5	210	–	–	–	–	–	–	COc1cc(OC)cc(N(CC(O)C(F)(F)F)c2ccc3ncc(-c4cccnc4)nc3c2)c1 (single isomer, unassigned) [Compound 54]
<5	<5	180	–	–	–	–	–	–	COc1cc(OC)cc(N(CC(OC(C)=O)C(F)(F)F)c2ccc3ncc(-c4cccnc4)nc3c2)c1 (single isomer, unassigned) [Compound 75]
5.07	5.07	–	0.01	–	–	–	–	–	COCCCN(c1cc(OC)cc(OC)c1)c1ccc2ncc(-c3ccn(C)c3)nc2c1 [Compound 3]
6.19	5.2	–	0.00234	–	–	–	–	–	COc1cc(OC)cc(N(CCNC(C)C)c2ccc3ncc(-c4ccn(C)c4)nc3c2)c1 [Compound 8]
5.56	~5.01	–	0.0102	–	–	–	–	–	COc1cc(OC)cc(N(CCNC(C)C)c2ccc3ncc(-c4cccnc4)nc3c2)c1 [Compound 10]
<5	<5	132	–	<5	–	–	–	–	COc1cc(OC)cc(N(CC2CC2)c2ccc3ncc(-c4ccnn4C)nc3c2)c1 [Compound 18]
–	–	–	–	–	<5	<5	<5	–	COc1cc(OC)cc(N(CC2CC2)c2ccc3ncc(-c4ccc5c(ccn5C)c4)nc3c2)c1 [Compound 20]
<5	<5	136	–	<5	–	–	–	<5	COc1cc(OC)cc(N(CC2CC2)c2ccc3ncc(-c4cn(C)cn4)nc3c2)c1 [Compound 21]
<5	<5	–	0.479	<5	–	–	–	–	COc1cc(OC)cc(N(CC2CC2)c2ccc3ncc(-n4ccnc4C)nc3c2)c1 [Compound 32]
<5	<5	–	–	<5	–	–	–	<5	COc1cc(OC)cc(N(CC2CC2)c2ccc3ncc(-c4cc[nH]c4)nc3c2)c1 [Compound 36]
5.04	5.27	–	0.011	–	–	–	–	–	COc1cc(OC)cc(N(Cc2cccc(CN)n2)c2ccc3ncc(-c4ccc(N)nc4)nc3c2)c1 [Compound 51]
~5	<5	143	–	<5	–	–	–	5.29	COc1cc(OC)cc(N(CC2CC2)c2ccc3ncc(-c4ccn(CCO)c4)nc3c2)c1 [Compound 56]
<5	<5	–	0.0813	<5	–	–	–	–	COc1cc(OC)cc(N(CC2CC2)c2ccc3ncc(-c4ccn[nH]4)nc3c2)c1 [Compound 58]
<5	<5	160	–	5.25	–	–	–	–	COc1cc(OC)cc(N(CC2CC2)c2ccc3ncc(Nc4cnn(C)c4)nc3c2)c1 [Compound 61]

BAF3-KDR (MIN IL3) 384 well pIC50 ([1]; minus IL3)	BAF3-FLT3 (MIN IL3) 384 well pIC50 ([2]; minus IL3)	melting point [°C]	IC50 [3] [µM]	BAF3-FLT3 (MIN IL3) 96 well pIC50 ([2]; minus IL3)	BAF3-KDR (MIN IL3) 384 well pIC50 ([1]; minus IL3, 384 well)	BAF3-FLT3 (MIN IL3) 96 well pIC50 ([2]; minus IL3, 96 well)	BAF3-FLT3 (MIN IL3) 384 well pIC50 ([2]; minus IL3, 384 well)	BAF3-KDR (MIN IL3) 96 well pIC50 ([1]; minus IL3)	SMILES
<5	<5	–	> 1	<5	–	–	–	<5	CCOC(=O)c1ncn(-c2cnc3ccc(N(CC4CC4)c4cc(OC)cc(OC)c4)cc3n2)c1C [Compound 65]
5.52	–	137	0.00209	–	–	–	–	–	COc1cc(OC)cc(N(CCCO)c2ccc3ncc(-c4ccnc(N)c4)nc3c2)c1 [Compound 66]
<5	<5	129	–	<5	–	–	–	<5	COc1cc(OC)cc(N(CC2CC2)c2ccc3ncc(-c4cnn(C)n4)nc3c2)c1 [Compound 70]
<5	<5	141	–	<5	–	–	–	<5	COc1cc(OC)cc(N(CC2CC2)c2ccc3ncc(-c4cn(C)nn4)nc3c2)c1 [Compound 71]
–	5.09	169	0.389	<5	–	–	–	–	COc1cc(OC)cc(N(CC2CC2)c2ccc3ncc(-c4cnnn4C)nc3c2)c1 [Compound 72]
5.07	5.03	110	–	5.31	–	–	–	<5	COc1cc(OC)cc(N(CC2CC2)c2ccc3ncc(-c4ccn(C)c4)nc3c2)c1 [Compound 73]
<5	<5	–	0.00437	–	–	–	–	–	COc1cc(OC)cc(N(CC(O)CO)c2ccc3ncc(-c4ccc(N)nc4)nc3c2)c1 (stereo not shown) [Compound 74]
–	<5	172	0.0117	–	–	–	–	–	CNC(=O)c1cc(-c2cnc3ccc(N(CCN4CCCC4CO)c4cc(OC)cc(OC)c4)cc3n2)ccn1 (stereo not shown) [Compound 109]
<5	–	150	0.00741	–	–	–	–	–	COc1cc(OC)cc(N(CCCO)c2ccc3ncc(-c4cccnc4)nc3c2)c1 [Compound 112]
5.06	–	166	0.00479	–	–	–	–	–	COc1cc(OC)cc(N(CCCO)c2ccc3ncc(-c4ccc(C)nc4)nc3c2)c1 [Compound 115]
<5	–	–	0.0117	–	–	–	–	–	COc1cc(OC)cc(N(CCCO)c2ccc3ncc(-c4ccc(F)nc4)nc3c2)c1 [Compound 117]
~5.3	~5.34	–	0.00589	–	–	–	–	–	COc1cc(OC)cc(N(CCNC(C)C)c2ccc3ncc(-c4ccccc4)nc3c2)c1 [Compound 121]
<5	<5	–	0.0372	–	–	–	–	–	CNC(=O)c1cc(-c2cnc3ccc(N(CCCNCC(F)(F)F)c4cc(OC)cc(OC)c4)cc3n2)ccn1 [Compound 122]
5.11	<5	–	0.00339	–	–	–	–	–	COc1cc(OC)cc(N(CCCO)c2ccc3ncc(-c4ccc(N5CCOCC5)nc4)nc3c2)c1 [Compound 124]
<5	<5	–	0.331	–	–	–	–	–	COc1cc(OC)cc(N(CCCNCC(F)(F)F)c2ccc3ncc(-c4ccc(N(C)C(=O)OC(C)(C)C)nc4)nc3c2)c1 [Compound 127]
